Numbers after ± are expanded uncertainties.
Assay: molar heat capacity at constant pressure; xn = mol fraction of the nth substance listed
Details: 101 kPa, Liquid, Small sample (50 mg) DSC

CN1CCNCC1 [N-methylpiperazine] + O
molar heat capacity at constant pressure [J/K/mol]
Details	x1 = 0.099	x1 = 0.1998	x1 = 0.2995	x1 = 0.4009	x1 = 0.4983	x1 = 0.6007	x1 = 0.6994	x1 = 0.7992	x1 = 0.8992	x1 = 1
298.15 K	99.4 ± 2.4	116 ± 2.6	128.8 ± 2.7	141.4 ± 2.8	153.8 ± 3	166.6 ± 3.1	179 ± 3.2	191.4 ± 3.4	203.6 ± 3.5	213.9 ± 3.6
303.15 K	100.6 ± 2.5	117.3 ± 2.6	130.4 ± 2.7	143.3 ± 2.8	155.6 ± 3	168.2 ± 3.1	180.5 ± 3.2	192.7 ± 3.4	204.7 ± 3.5	214.4 ± 3.6
308.15 K	101.6 ± 2.5	118.6 ± 2.6	131.9 ± 2.7	144.8 ± 2.9	157.1 ± 3	169.7 ± 3.1	182 ± 3.3	194.3 ± 3.4	205.8 ± 3.5	215 ± 3.6
313.15 K	102.7 ± 2.5	119.9 ± 2.6	133.4 ± 2.7	146.4 ± 2.9	158.6 ± 3	171.3 ± 3.1	183.4 ± 3.3	195.4 ± 3.4	206.8 ± 3.5	215.7 ± 3.6
318.15 K	103.7 ± 2.5	120.8 ± 2.6	134.6 ± 2.8	147.7 ± 2.9	159.8 ± 3	172.7 ± 3.2	184.7 ± 3.3	196.7 ± 3.4	207.8 ± 3.6	216.4 ± 3.7
323.15 K	104.6 ± 2.5	122.1 ± 2.6	136.2 ± 2.8	149.3 ± 2.9	161.4 ± 3	174 ± 3.2	185.7 ± 3.3	197.5 ± 3.4	208.5 ± 3.6	216.9 ± 3.7
328.15 K	105.6 ± 2.5	123.5 ± 2.7	137.8 ± 2.8	151.1 ± 2.9	163 ± 3.1	175.3 ± 3.2	186.9 ± 3.3	198.5 ± 3.4	209.2 ± 3.6	217.3 ± 3.7
333.15 K	106.1 ± 2.5	124.8 ± 2.7	139.4 ± 2.8	153.3 ± 3	165.5 ± 3.1	177.3 ± 3.2	188.2 ± 3.3	198.9 ± 3.5	209.3 ± 3.6	217.2 ± 3.7
338.15 K	106.6 ± 2.5	126.1 ± 2.7	140.9 ± 2.8	154.4 ± 3	166.8 ± 3.1	178.4 ± 3.2	189 ± 3.3	198.5 ± 3.4	208.2 ± 3.6	215.5 ± 3.6
343.15 K	107.3 ± 2.5	127.3 ± 2.7	142.4 ± 2.8	156 ± 3	168.2 ± 3.1	179.8 ± 3.2	190.6 ± 3.4	200.1 ± 3.5	209.2 ± 3.6	216.2 ± 3.7
348.15 K	108.2 ± 2.5	128.5 ± 2.7	143.8 ± 2.9	157.6 ± 3	170 ± 3.1	181.6 ± 3.3	192.4 ± 3.4	202.3 ± 3.5	211.4 ± 3.6	217.6 ± 3.7
353.15 K	109 ± 2.5	129.7 ± 2.7	145.2 ± 2.9	159.2 ± 3	171.5 ± 3.1	183 ± 3.3	193.8 ± 3.4	203.7 ± 3.5	212.7 ± 3.6	218 ± 3.7
